According to publication PMC8500670, “A selective WDR5 degrader inhibits acute myeloid leukemia in patient-derived mouse models” (Science translational medicine, 2021):

Key:
Assay in all cases: biochemical
Design in all cases: protein methyltransferase inhibition panel, single concentration, duplicate
PRMT1 = PRMT1 (Homo sapiens, UniProt Q99873)
Procedure: (§1) We next assessed selectivity of MS67 against 22 protein methyltransferases (table S2) and a broad panel of common drug targets including 45 kinases (table S3) and 44 G protein–coupled receptors (GPCR), ion channels, and transporters (table S4). […] We subsequently determined that MS67 had moderate binding affinity (Ki = 1.0 ± 0.8 μM) to Sigma 2 receptor (fig. S10).

SMYD3 = molecular target: T1, SMYD3 (Homo sapiens, UniProt Q9H7B4)
T1 sequence (Q9H7B4 1-428): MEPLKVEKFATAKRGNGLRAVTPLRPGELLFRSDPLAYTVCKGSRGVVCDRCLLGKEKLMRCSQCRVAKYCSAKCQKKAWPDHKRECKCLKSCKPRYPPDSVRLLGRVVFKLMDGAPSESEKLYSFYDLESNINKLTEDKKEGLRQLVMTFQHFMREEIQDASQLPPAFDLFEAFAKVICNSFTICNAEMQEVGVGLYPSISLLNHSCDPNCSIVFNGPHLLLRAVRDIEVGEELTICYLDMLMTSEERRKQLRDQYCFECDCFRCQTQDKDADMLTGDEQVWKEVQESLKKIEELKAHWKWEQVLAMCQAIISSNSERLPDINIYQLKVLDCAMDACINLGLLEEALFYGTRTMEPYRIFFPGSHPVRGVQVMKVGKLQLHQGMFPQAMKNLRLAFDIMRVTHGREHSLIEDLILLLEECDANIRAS
Procedure: as §1

SUV39H2 = SUV39H2 (Homo sapiens, UniProt Q9H5I1)
Procedure: as §1

NSD3 = molecular target: T2, NSD3 (Homo sapiens, UniProt Q9BZ95)
T2 sequence (Q9BZ95 1-1437): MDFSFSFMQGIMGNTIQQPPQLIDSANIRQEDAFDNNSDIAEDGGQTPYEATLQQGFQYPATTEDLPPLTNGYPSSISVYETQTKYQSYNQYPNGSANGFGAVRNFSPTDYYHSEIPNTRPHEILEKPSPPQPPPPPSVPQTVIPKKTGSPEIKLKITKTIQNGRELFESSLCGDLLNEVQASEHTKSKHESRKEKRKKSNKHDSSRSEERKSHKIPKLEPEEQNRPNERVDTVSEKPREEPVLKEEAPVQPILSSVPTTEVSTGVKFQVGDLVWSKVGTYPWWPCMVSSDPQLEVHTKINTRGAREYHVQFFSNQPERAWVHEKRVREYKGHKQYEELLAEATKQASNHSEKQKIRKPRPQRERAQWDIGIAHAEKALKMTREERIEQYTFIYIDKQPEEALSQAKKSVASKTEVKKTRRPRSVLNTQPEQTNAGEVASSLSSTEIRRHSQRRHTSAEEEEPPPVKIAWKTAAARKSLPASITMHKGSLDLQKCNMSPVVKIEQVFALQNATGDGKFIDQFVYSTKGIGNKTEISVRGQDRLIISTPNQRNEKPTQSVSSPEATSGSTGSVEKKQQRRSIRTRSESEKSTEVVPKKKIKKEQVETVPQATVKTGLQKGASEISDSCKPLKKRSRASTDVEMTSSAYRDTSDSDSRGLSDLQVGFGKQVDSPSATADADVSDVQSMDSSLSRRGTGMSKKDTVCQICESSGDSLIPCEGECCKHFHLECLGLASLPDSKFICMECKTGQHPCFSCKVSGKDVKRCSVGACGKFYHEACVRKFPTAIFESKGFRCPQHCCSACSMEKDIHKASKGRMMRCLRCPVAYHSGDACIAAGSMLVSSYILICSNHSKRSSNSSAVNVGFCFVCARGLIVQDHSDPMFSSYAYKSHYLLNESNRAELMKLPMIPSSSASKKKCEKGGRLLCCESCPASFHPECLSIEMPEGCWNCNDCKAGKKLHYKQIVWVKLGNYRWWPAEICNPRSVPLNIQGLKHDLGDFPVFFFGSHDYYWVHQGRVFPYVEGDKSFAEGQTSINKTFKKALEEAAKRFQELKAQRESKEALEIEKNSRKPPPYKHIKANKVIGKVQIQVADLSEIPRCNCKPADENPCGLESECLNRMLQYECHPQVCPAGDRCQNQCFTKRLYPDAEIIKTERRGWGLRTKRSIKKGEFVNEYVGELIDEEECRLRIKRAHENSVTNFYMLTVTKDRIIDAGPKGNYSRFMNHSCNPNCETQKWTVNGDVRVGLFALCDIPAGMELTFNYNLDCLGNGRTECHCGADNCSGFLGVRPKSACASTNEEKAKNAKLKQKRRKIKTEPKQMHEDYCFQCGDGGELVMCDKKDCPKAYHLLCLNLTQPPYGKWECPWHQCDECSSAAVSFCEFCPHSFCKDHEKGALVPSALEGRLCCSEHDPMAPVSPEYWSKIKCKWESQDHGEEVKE
Procedure: as §1

SUV39H1 = molecular target: T3, SUV39H1 (Homo sapiens, UniProt O43463)
T3 sequence (O43463 1-412): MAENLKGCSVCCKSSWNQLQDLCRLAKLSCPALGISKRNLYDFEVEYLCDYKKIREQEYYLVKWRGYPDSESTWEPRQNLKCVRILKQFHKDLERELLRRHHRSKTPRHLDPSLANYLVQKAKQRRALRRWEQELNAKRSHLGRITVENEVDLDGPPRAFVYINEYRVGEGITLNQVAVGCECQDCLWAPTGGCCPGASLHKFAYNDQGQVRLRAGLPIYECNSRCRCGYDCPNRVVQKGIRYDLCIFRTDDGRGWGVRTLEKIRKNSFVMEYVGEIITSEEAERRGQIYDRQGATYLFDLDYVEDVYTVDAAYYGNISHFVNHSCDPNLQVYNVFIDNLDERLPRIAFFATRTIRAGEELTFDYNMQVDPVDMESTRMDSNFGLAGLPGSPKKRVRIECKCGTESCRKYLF
Procedure: as §1

DOT1L = DOT1L (Homo sapiens, UniProt Q8TEK3)
Procedure: as §1

Measured: inhibition at 10 µM

Sequence of PRMT1 (Q99873 whole entry): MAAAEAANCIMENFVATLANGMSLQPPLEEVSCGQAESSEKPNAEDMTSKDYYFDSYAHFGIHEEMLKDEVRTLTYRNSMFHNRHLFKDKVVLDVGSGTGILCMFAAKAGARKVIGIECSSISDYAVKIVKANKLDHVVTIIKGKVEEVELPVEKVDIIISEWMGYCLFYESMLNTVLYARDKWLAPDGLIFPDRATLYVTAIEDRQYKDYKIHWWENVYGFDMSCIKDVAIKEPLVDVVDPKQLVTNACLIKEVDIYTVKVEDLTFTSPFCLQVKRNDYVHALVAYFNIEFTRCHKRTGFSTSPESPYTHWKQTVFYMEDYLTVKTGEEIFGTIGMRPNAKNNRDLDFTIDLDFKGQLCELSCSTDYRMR
Sequence of SUV39H2 (Q9H5I1 whole entry): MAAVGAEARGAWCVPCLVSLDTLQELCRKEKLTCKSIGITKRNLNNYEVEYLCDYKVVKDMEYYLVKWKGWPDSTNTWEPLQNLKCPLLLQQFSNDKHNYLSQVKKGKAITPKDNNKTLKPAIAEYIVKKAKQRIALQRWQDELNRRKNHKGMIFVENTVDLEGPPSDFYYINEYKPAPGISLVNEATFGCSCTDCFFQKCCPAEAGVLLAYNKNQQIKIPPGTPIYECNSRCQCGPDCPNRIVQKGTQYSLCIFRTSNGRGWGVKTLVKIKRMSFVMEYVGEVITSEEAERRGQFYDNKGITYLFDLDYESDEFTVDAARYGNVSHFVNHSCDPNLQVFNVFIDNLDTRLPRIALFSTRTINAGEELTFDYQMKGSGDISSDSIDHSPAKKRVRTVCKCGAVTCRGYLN
Sequence of DOT1L (Q8TEK3 whole entry): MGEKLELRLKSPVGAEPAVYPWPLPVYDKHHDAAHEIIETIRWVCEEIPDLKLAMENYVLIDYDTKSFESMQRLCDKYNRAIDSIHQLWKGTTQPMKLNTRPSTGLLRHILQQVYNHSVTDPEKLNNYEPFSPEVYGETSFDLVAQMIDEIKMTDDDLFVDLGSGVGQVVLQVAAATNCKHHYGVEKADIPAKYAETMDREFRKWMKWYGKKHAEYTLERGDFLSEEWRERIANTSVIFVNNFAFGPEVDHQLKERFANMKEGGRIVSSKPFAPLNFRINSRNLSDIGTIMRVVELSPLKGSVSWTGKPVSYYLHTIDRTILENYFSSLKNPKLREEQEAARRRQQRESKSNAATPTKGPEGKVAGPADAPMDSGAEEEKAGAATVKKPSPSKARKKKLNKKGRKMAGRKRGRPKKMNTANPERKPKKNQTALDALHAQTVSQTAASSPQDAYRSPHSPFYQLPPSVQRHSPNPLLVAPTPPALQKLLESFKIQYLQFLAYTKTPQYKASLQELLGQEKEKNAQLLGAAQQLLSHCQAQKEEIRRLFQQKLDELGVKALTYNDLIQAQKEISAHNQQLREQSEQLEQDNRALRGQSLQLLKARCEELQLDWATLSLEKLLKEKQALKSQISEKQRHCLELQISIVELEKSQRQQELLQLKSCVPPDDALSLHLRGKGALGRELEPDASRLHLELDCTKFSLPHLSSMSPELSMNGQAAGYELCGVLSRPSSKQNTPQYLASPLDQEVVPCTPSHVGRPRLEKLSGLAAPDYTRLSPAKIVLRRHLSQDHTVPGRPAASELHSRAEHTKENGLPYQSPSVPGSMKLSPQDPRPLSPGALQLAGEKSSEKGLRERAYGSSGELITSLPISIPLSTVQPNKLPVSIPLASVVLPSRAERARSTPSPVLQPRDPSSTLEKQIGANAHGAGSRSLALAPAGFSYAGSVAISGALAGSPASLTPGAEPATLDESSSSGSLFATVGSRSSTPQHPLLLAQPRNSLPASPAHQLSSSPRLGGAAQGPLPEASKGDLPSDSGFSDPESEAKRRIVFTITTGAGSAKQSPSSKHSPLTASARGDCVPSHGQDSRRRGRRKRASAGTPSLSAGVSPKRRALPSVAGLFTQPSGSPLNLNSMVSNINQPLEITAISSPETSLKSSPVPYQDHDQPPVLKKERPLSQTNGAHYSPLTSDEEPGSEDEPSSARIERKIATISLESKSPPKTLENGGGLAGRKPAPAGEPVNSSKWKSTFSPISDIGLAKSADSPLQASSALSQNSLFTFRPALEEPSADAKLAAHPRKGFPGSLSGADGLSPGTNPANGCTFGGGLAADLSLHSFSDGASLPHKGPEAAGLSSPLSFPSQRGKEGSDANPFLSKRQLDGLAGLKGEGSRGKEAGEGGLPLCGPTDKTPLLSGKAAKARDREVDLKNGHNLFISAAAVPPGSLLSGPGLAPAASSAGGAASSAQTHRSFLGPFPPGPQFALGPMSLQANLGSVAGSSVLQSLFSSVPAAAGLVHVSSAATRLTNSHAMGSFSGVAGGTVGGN

Cc1ncsc1-c1ccc([C@H](C)NC(=O)[C@@H]2C[C@@H](O)CN2C(=O)[C@@H](NC(=O)CNC(=O)c2ccc(F)c(-c3ccc(N4C[C@@H](C)N(C)[C@@H](C)C4)c(NC(=O)c4c[nH]c(=O)cc4C(F)(F)F)c3)c2)C(C)(C)C)cc1 [MS67]
< 10%: all assays above
